From BindingDB's records for doi:10.1016/j.bmcl.2005.02.006 (Wyeth Research, 2005)

Experiments:
[1] = In vitro effective concentration against beta amyloid protein 40 in ELISA
[2] = In vitro effective concentration against beta amyloid protein 42 in ELISA
[3] = In vitro inhibition of amyloid precursor protein 695 activity in CHO cells expressing human APP

Structure (SMILES)	EC50 [1]	EC50 [2]	EC50 [3]
CCOC(=O)N1CCC(c2ccccc2C)(S(=O)(=O)c2ccc(Cl)cc2)CC1 [4-(4-Chloro-benzenesulfonyl)-4-o-tolyl-piperidine-1-carboxylic acid ethyl ester]	2.7 µM	3.7 µM	–
CCOC(=O)N1CCC(c2ccccc2OC)(S(=O)(=O)c2ccc(OC)cc2)CC1 [4-(4-Methoxy-benzenesulfonyl)-4-(2-methoxy-phenyl)-piperidine-1-carboxylic acid ethyl ester]	50.6 µM	–	–
CCOC(=O)N1CCC(c2ccccc2OC)(S(=O)(=O)c2ccccc2)CC1 [4-Benzenesulfonyl-4-(2-methoxy-phenyl)-piperidine-1-carboxylic acid ethyl ester]	62.7 µM	–	–
CCOC(=O)N1CCC(c2ccccc2C)(S(=O)(=O)c2ccccc2)CC1 [4-Benzenesulfonyl-4-o-tolyl-piperidine-1-carboxylic acid ethyl ester]	48.6 µM	–	–
CCCNC(=O)OC[C@@H](C)N(c1cc(Cl)ccc1CO)S(=O)(=O)c1ccc(Cl)cc1 [BMCL18464 Compound 14]	0.1 µM	–	–

The remaining lines, values ahead:

EC50 [1]	EC50 [2]	EC50 [3]	Structure (SMILES)
24.5 µM	–	–	CCOC(=O)N1CCC(c2ccccc2C)(S(=O)(=O)c2ccc(OC)cc2)CC1 [4-(4-Methoxy-benzenesulfonyl)-4-o-tolyl-piperidine-1-carboxylic acid ethyl ester]
97 µM	–	–	CCOC(=O)N1CCC(c2ccccc2)(S(=O)(=O)c2ccc(OC)cc2)CC1 [4-(4-Methoxy-benzenesulfonyl)-4-phenyl-piperidine-1-carboxylic acid ethyl ester]
3.5 µM	5 µM	1.03 µM	CCOC(=O)N1CCC(c2ccccc2OC)(S(=O)(=O)c2ccc(Cl)cc2)CC1 [ethyl 4-(4-chlorophenylsulfonyl)-4-(2-methoxyphenyl)piperidine-1-carboxylate]
12.2 µM	20.9 µM	–	CCOC(=O)N1CCC(c2ccccc2)(S(=O)(=O)c2ccc(Cl)cc2)CC1 [ethyl 4-[(4-chlorobenzene)sulfonyl]-4-phenylpiperidine-1-carboxylate]
